Data on one compound can be found in patent US10532109B2, “Peptide-DNA chimeras for treatment of HER overexpressing cancers” (ARIZONA BOARD OF REGENTS ON BEHALF OF ARIZONA STATE …, priority 2016, dated 2020).

For assay [1], the system named is MDA-MB-231 human breast cancer cells (low expression of HER2 receptor). Nature of the assay: Cancer cell inhibition assay (MTT), MDA-MB-231. It is filed as cell-based. The note with it: 48, 72, 96 h. On the procedure: BT474 human breast cancer cells (ATCC® HTB-20™, overexpression of HER2) and MDA-MB-231 human breast cancer cells (ATCC® HTB-26™, low expression of HER2 receptor) were cultured at 37° C. in a 5% CO2 atmosphere and grown in Gibco® RPMI 1640 medium supplemented with 10% fetal bovine serum (FBS) and 1% antibiotic-antimycotic mix antibiotic supplement before use.
Exponentially growing BT474 cells and MDA-MB-231 cells were harvested and plated in 96-well plates at a concentration of 2×10^4 cells/well for BT474 cells and 5×10^4 cells/well for MDA-MB231 cells. […] Then 20 μL of MTT (5 mg/mL) was added to each well and the plates were incubated at 37° C. for 4 hours. The supernatant was discarded, and 100 μL of DMSO was added to each well. The absorbance was recorded at 490 nm after 15 minutes. Inhibition of cell growth was obtained by the following formula: […]
Data are reported as the mean of three independent experiments, each run in quintuplicate.

Another assay concerns MDA-MB-231 cells. Nature of the assay: HER2 binding assay (fluorescence microscopy), MDA-MB-231. It is filed as cell-based, human. The note with it: 1 μM; 1 hour. On the procedure:
(§1) BT474 cells and MDA-MB-231 cells were grown on glass bottom microwell disks at a cell density of approximately 10,000 cells/well at 37° C. for 48 hours. […] Then the cells were stained using 2.5 μg/mL DAPI (Invitrogen) for 30 minutes after the cells were rinsed with phosphate buffered saline (PBS) for two times. Finally, the cells were fixed with 4% paraformaldehyde for 10 minutes. The fluorescent images were obtained using a fluorescence microscope (Nikon Ti-U, Japan) with red and green filters. Thereafter, all images were recorded and the target cells counted using a 40× oil objective. To ensure accurate intensity measurements, the exposure time (3000 ms) and laser time were kept the same. The mean pixel intensity within the region of interest was calculated. Data are reported as the mean of three independent experiments, each run in quintuplicate. The data was expressed as mean±SD.

Assay [2] relates to BT474 human breast cancer cells (overexpression of HER2). Nature of the assay: Cancer cell inhibition assay (MTT), BT474. It is filed as cell-based. The note with it: for inhibition at 0.32 µM: BT-474, 320 nM doxorubicin, free or as 6.4 nM IV (1:50 III-doxorubicin); for inhibition at 0.32 µM / inhibition at 0.64 µM: read-out: inhibition of BT474 cell growth; for inhibition at 0.64 µM: BT-474, 640 nM doxorubicin, free or as 12.8 nM IV.
Procedure: Exponentially growing BT474 cells and MDA-MB-231 cells were harvested and plated in 96-well plates at a concentration of 2×10^4 cells/well for BT474 cells and 5×10^4 cells/well for MDA-MB231 cells. […] Then 20 μL of MTT (5 mg/mL) was added to each well and the plates were incubated at 37° C. for 4 hours. The supernatant was discarded, and 100 μL of DMSO was added to each well. The absorbance was recorded at 490 nm after 15 minutes. Inhibition of cell growth was obtained by the following formula: Inhibition (%)=(ODTreatment−ODbackground)/(ODNagative control−ODbackground)×100%

A further assay relates to BT474 cells. Nature of the assay: HER2 binding assay (fluorescence microscopy), BT474. In kind it is cell-based, human. The note with it: 1 μM; 1 hour. As to the method: as §1

Structures are written as SMILES. Entries after “also recorded” stand apart in the source; their conditions may differ. Where two headings read alike, the source gives them in different places.

With `COc1cccc2c1C(=O)c1c(O)c3c(c(O)c1C2=O)C[C@@](O)(C(=O)CO)C[C@@H]3O[C@H]1C[C@H](N)[C@H](O)[C@H](C)O1` [doxorubicin], the “fold higher average percent inhibition of MDA-MB-231 by doxorubicin than IV” value in assay [1] (160 nM doxorubicin concentration) is given as 1.0-2.3 fold; in assay [1] (320 nM doxorubicin concentration), 1.3-2.0 fold; in assay [1] (640 nM doxorubicin concentration) it was 1.6-2.0 fold. For the same compound, the “binding ability to MDA-MB-231 cells (fluorescence on cell surface, in words)” value in the assay on MDA-MB-231 cells is on record as “relatively weak fluorescence intensity; also recorded: relatively weak ability”. The values for the inhibition at 0.32 µM in assay [2] (48 h), in assay [2] (72 h) and in assay [2] (96 h) were 19%, 43% and 44%, respectively. Further, the results for the inhibition at 0.64 µM in assay [2] (48 h), in assay [2] (72 h) and in assay [2] (96 h) were 36%, 68% and 78%, respectively. The inhibition at 0.16 µM in assay [2] (BT-474, read-out: average inhibition of BT474 cell growth) was determined as 10%. The “binding ability to BT474 cells (fluorescence on cell surface, in words)” value in the assay on BT474 cells is reported as “relatively weak fluorescence intensity; also recorded: relatively weak ability”. Also, the “binding selectivity between BT474 and MDA-MB-231 cells” value in the assay on BT474 cells is “did not show any binding selectivity; also recorded: did not shown any selectivity”.

As a reminder, the inhibition is the change of the read-out against control, counted positive when it falls.
